Measurements as given in patent publication US20230265104A1, “NOVEL HETEROCYCLIC COMPOUNDS” (PRISM BIOLAB CO., LTD., priority 2020, published 2023).

Tested on: PANC-1 (human pancreatic cancer-derived cell line)
Assay: MTS assay on Panc-1 (human pancreas carcinoma cell line)
Assay type: cell-based
Conditions: 144 h; for IC50: PANC-1, MTS method, cell survival 6 days after exposure, 4-parameter logistic fit; for inhibition at 30 µM: read-out: Growth inhibition (%) 30 μM; for inhibition at 10 µM: read-out: Growth inhibition (%) 10 μM; for inhibition at 0.3125 µM: read-out: Growth inhibition (%) 0.3125 μM; for inhibition at 1 µM: read-out: Growth inhibition (%) 1 μM
Outline: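 PANC-1 cells in D-MEM + 10% FBS at 37 °C, 5% CO2 exposed to 2-fold serial DMSO dilutions of compound for 6 days. Survival read by MTS (492 minus 630 nm, blank-corrected) relative to DMSO control as 100%; mean of 3 runs, 4-parameter logistic fit.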

Compound: CC(C)C[C@H]1ON(C(=O)/C=C/c2ccccn2)[C@H]2CN(CCC(=O)N3CCNCC3)C(=O)[C@H](CC(C)C)N2C1=O [ID-21, (3R,6S,9aS)-3,6-diisobutyl-8-(3-oxo-3-(piperazin-1-yl)propyl)-1-((E)-3-(pyridin-2-yl)acryloyl)tetrahydropyrazino[2,1-c][1,2,4]oxadiazine-4,7 (3H, 6H)-dione]
- IC50: 19.8 µM
- inhibition at 30 µM (PANC-1, MTS, 6 days): 99.5%

Compound: CC(C)C[C@H]1ON(C(=O)/C=C/c2ccnn2C)[C@H]2CN(C3CCN(C)CC3)C(=O)[C@H](CC(C)C)N2C1=O [ID-44, (3R,6S,9aS)-3,6-diisobutyl-1-((E)-3-(1-methyl-1H-pyrazol-5-yl)acryloyl)-8-(1-methylpiperidin-4-yl)tetrahydropyrazino[2,1-c][1,2,4]oxadiazine-4,7(3H,6H)-dione]
- inhibition at 10 µM (PANC-1, MTS, 6 days): 94.7%

Compound: C#Cc1cnc(/C=C/C(=O)N2O[C@H](CC(C)C)C(=O)N3[C@@H]2CN([C@H]2CCN(CCCCO)C2)C(=O)[C@@H]3CC(C)(C)C)s1 [ID-89, (3R,6S,9aS)-1-((E)-3-(5-ethynylthiazol-2-yl)acryloyl)-8-((S)-1-(4-hydroxybutyl)pyrrolidin-3-yl)-3-isobutyl-6-neopentyltetrahydropyrazino[2,1-c][1,2,4]oxadiazine-4,7(3H,6H)-dione]
- IC50: 0.18 µM
- inhibition at 0.3125 µM (PANC-1, MTS, 6 days): 100%

Compound: CC(C)C[C@H]1ON(C(=O)/C=C/c2ccccn2)[C@H]2CN(CCC(=O)Nc3nccs3)C(=O)[C@H](CC(C)C)N2C1=O [ID-27, 3-((3R,6S,9aS)-3,6-diisobutyl-4,7-dioxo-1-((E)-3-(pyridin-2-yl)acryloyl)hexahydropyrazino[2,1-c][1,2,4]oxadiazin-8 (1H)-yl)—N-(thiazol-2-yl)propanamide]
- IC50: 8.6 µM
- inhibition at 30 µM (PANC-1, MTS, 6 days): 99.3%

Compound: CC(C)C[C@H]1ON(C(=O)/C=C/c2nc(C#CC3(N)CC3)cs2)[C@H]2CN([C@H]3CCN(CCCCO)C3)C(=O)[C@H](CC(C)(C)C)N2C1=O [ID-87, (3R, 6S, 9aS)-1-((E)-3-(4-((1-aminocyclopropyl)ethynyl)thiazol-2-yl)acryloyl)-8-((S)-1-(4-hydroxybutyl)pyrrolidin-3-yl)-3-isobutyl-6-neopentyltetrahydropyrazino[2,1-c][1,2,4]oxadiazine-4,7(3H,6H)-dione]
- inhibition at 0.3125 µM (PANC-1, MTS, 6 days): 54.5%

Compound: CC(C)C[C@H]1ON(C(=O)/C=C/c2nc3ccccc3s2)[C@H]2CN(C3CCN(CCOCCO)CC3)C(=O)[C@H](CC(C)(C)C)N2C1=O [ID-77, (3R,6S,9aS)-1-((E)-3-(benzo[d]thiazol-2-yl)acryloyl)-8-(1-(2-(2-hydroxyethoxy)ethyl)piperidin-4-yl)-3-isobutyl-6-neopentyltetrahydropyrazino[2,1-c][1,2,4]oxadiazine-4,7(3H,6H)-dione]
- inhibition at 0.3125 µM (PANC-1, MTS, 6 days): 55.2%

Compound: CC(C)C[C@H]1ON(C(=O)/C=C/c2ccc3cccnc3n2)[C@H]2CN(CCC(N)=O)C(=O)[C@H](CC(C)C)N2C1=O [ID-31, 3-((3R,6S,9aS)-1-((E)-3-(1,8-naphthyridin-2-yl)acryloyl)-3,6-diisobutyl-4,7-dioxohexahydropyrazino[2,1-c][1,2,4]oxadiazin-8(1H)-yl)propanamide]
- IC50: 2.7 µM
- inhibition at 10 µM (PANC-1, MTS, 6 days): 99.3%

Compound: CC(C)C[C@H]1ON(C(=O)/C=C/c2ccccn2)[C@H]2CN(C3CCN(C4CCOCC4)CC3)C(=O)[C@H](CC(C)C)N2C1=O [ID-62, (3R,6S,9aS)-3,6-diisobutyl-1-((E)-3-(pyridin-2-yl)acryloyl)-8-(1-(tetrahydro-2H-pyran-4-yl)piperidin-4-yl)tetrahydropyrazino[2,1-c][1,2,4]oxadiazine-4,7(3H,6H)-dione]
- IC50: 3.4 µM

Compound: CC(C)C[C@H]1ON(C(=O)/C=C/c2nc3ccccc3s2)[C@H]2CN(C3CCN(C)CC3)C(=O)[C@H](CC(C)C)N2C1=O [ID-2, (3R, 6S, 9aS)-1-((E)-3-(benzo[d]thiazol-2-yl)acryloyl)-3,6-diisobutyl-8-(1-methylpiperidin-4-yl) tetrahydropyrazino[2,1-c] [1,2,4]oxadiazine-4,7(3H,6H)-dione]
- IC50: 0.27 µM

Compound: CC(C)C[C@H]1ON(C(=O)/C=C/c2nc3c(s2)CCCC3)[C@H]2CN(CCC(N)=O)C(=O)[C@H](CC(C)C)N2C1=O [ID-37, 3-((3R,6S,9aS)-3,6-diisobutyl-4,7-dioxo-1-((E)-3-(4,5,6,7-tetrahydrobenzo[d]thiazol-2-yl)acryloyl)hexahydropyrazino[2,1-c][1,2,4]oxadiazin-8 (1H)-yl)propanamide]
- IC50: 4.7 µM
- inhibition at 10 µM (PANC-1, MTS, 6 days): 95.8%

Compound: CC(C)C[C@H]1ON(C(=O)/C=C/c2nc3ccccc3s2)[C@H]2CN(C3CCN(CCCN)CC3)C(=O)[C@H](CC(C)(C)C)N2C1=O [ID-75, (3R,6S,9aS)-8-(1-(3-aminopropyl)piperidin-4-yl)-1-((E)-3-(benzo[d]thiazol-2-yl)acryloyl)-3-isobutyl-6-neopentyltetrahydropyrazino[2,1-c][1,2,4]oxadiazine-4,7(3H,6H)-dione]
- IC50: 0.39 µM
- inhibition at 0.3125 µM (PANC-1, MTS, 6 days): 19.9%

Compound: CC(C)C[C@H]1ON(C(=O)/C=C/c2nc(C#CCCCO)cs2)[C@H]2CN(C3CCN(C4CC4)CC3)C(=O)[C@H](CC(C)(C)C)N2C1=O [ID-102, (3R,6S,9aS)-8-(1-cyclopropylpiperidin-4-yl)-1-((E)-3-(4-(5-hydroxypent-1-yn-1-yl)thiazol-2-yl)acryloyl)-3-isobutyl-6-neopentyltetrahydropyrazino[2,1-c][1,2,4]oxadiazine-4,7(3H,6H)-dione]
- inhibition at 0.15625 µM (PANC-1, MTS, 6 days, 0.15625 μM, read-out: Growth inhibition (%) 0.15625 μM): 36.9%

Compound: CNCCCN1C[C@H](CC(C)C)N2C(=O)[C@@H](CC(C)C)ON(C(=O)/C=C/c3ccccn3)[C@H]2C1 [ID-19, (3R,6S,9aS)-3,6-diisobutyl-8-(3-(methylamino)propyl)-1-((E)-3-(pyridin-2-yl)acryloyl)hexahydropyrazino[2,1-c][1,2,4]oxadiazin-4(3H)-one]
- IC50: 10.2 µM
- inhibition at 30 µM (PANC-1, MTS, 6 days): 99.7%

Compound: CC(C)(C)C[C@H]1C(=O)N([C@@H]2CCN(CCCCO)C2)C[C@@H]2N(C(=O)/C=C/c3cnc4ccccc4n3)O[C@H](CC3CCCCC3)C(=O)N21 [ID-90, (3R, 6S, 9aS)-3-(cyclohexylmethyl)-8-((R)-1-(4-hydroxybutyl)pyrrolidin-3-yl)-6-neopentyl-1-((E)-3-(quinoxalin-2-yl)acryloyl)tetrahydropyrazino[2,1-c][1,2,4]oxadiazine-4,7(3H,6H)-dione]
- IC50: 0.21 µM
- inhibition at 0.3125 µM (PANC-1, MTS, 6 days): 66%
- inhibition at 1 µM (PANC-1, MTS, 6 days): 99%

Compound: CC(C)C[C@H]1ON(C(=O)/C=C/c2ccc3ccccc3c2)[C@H]2CN(CCC(N)=O)C(=O)[C@H](CC(C)C)N2C1=O [ID-24, 3-((3R,6S,9aS)-3,6-diisobutyl-1-((E)-3-(naphthalen-2-yl)acryloyl)-4,7-dioxohexahydropyrazino[2,1-c] [1,2,4]oxadiazin-8(1H)-yl)propanamide]
- IC50: 15.8 µM
- inhibition at 30 µM (PANC-1, MTS, 6 days): 102%

Compound: CCC(CC)C[C@H]1ON(C(=O)/C=C/c2cnc3ccccc3n2)[C@H]2CN([C@@H]3CCN(CCCCO)C3)C(=O)[C@H](CC(C)(C)C)N2C1=O [ID-107, (3R, 6S, 9aS)-3-(2-ethylbutyl)-8-((R)-1-(4-hydroxybutyl)pyrrolidin-3-yl)-6-neopentyl-1-((E)-3-(quinoxalin-2-yl)acryloyl)tetrahydropyrazino[2,1-c][1,2,4]oxadiazine-4,7(3H,6H)-dione]
- IC50: 0.2 µM
- inhibition at 0.3125 µM (PANC-1, MTS, 6 days): 94.3%
- inhibition at 1 µM (PANC-1, MTS, 6 days): 98.5%
